The values below come from paper PMC10167746, “Crystal structure of MbnF: an NADPH-dependent flavin monooxygenase from Methylocystis strain SB2” (Acta Crystallographica. Section F, Structural Biology …, 2023).

In test [1] the target is T1, MbnF (MbnF-His) (Methylocystis sp. SB2, UniProt A0ACD6BAX2).
T1 construct: gene CTY30_04200; full-length, C-terminal His6 tag kept (pET-41a, E. coli BL21(DE3)); monomer in solution (SEC), dimer in crystal
Put plainly: X-ray crystal structure, […] A. Format: binding. The note with it: co-purified from E. coli, no FAD added; noncovalent; 'in' conformation, all three monomers of the asymmetric unit; crystals pH 6.5, 200 mM NaBr.

For test [2], the target named is T2, MbnF from Methylocystis sp. strain SB2, C-terminally His6-tagged (Methylocystis sp. strain SB2).
T2 construct: MbnF, Methylocystis sp. strain SB2; Computed mass 59.17 kDa as printed; also called MbnF-His; FAD-dependent oxidoreductase; source: E. coli BL21(DE3), pET-41, purified (HisTrap, Mono Q); not shown: His6, C-terminal, kept
T2 chain: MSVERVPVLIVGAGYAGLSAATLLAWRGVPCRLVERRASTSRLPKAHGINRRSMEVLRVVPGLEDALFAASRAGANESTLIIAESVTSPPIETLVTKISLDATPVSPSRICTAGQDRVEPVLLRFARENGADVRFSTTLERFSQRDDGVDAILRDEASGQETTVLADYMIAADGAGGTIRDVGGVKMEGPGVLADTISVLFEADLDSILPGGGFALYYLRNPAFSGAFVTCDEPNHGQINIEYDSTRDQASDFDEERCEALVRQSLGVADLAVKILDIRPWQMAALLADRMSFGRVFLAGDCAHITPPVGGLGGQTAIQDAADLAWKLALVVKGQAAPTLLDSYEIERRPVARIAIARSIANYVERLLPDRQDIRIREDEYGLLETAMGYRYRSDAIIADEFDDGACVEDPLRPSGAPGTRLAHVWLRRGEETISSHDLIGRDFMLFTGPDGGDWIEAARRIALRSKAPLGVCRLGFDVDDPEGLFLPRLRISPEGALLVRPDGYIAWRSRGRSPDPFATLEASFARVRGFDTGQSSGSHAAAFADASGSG
Put plainly: native MS; ESI-MS after a SEC column (ACQUITY UPLC Protein BEH SEC) under neutral pH, isocratic 50 mM ammonium acetate pH 6.6; mixture of 1 mg/ml MbnA, 500 µM MbnF, 250 mM NaCl, 50 mM HEPES pH 7.4. The note with it: both partners purified. For orientation: Size exclusion chromatography separates by hydrodynamic size, large species first.

Consider `Cc1cc2nc3c(=O)[nH]c(=O)nc-3n(C[C@H](O)[C@H](O)[C@H](O)COP(=O)(O)OP(=O)(O)OC[C@H]3O[C@@H](n4cnc5c(N)ncnc54)[C@H](O)[C@@H]3O)c2cc1C` [FAD], for which, in test [1], the “X-ray crystal structure, 2.61 A” value is “All three monomers of the asymmetric unit bound FAD in the same general conformation”.

B1: MbnA peptide (methanobactin MB-SB2 precursor peptide) (peptide)
peptide: IRIAKRITLNVIGRASARCASTCAATNG
notes: MbnA, precursor peptide of methanobactin MB-SB2, Methylocystis sp. strain SB2; the natural precursor may have further residues at its N-terminus; also called MB-SB2 peptide precursor; source: synthetic peptide, bought: AnaSpec (~90% pure)
Consider B1, for which the binding result in test [2] is “binds”.
